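Method: 48-hour compound exposure of cells in 96-well plates, five concentrations, linear interpolation of endpoints. GI50 is the concentration that inhibits growth by half. TGI marks complete inhibition of growth.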
Assays:
Assay in all cases: DTP human tumour cell line panel, 48 h
DLD-1 colon = test system: DLD-1 colon
DMS 114 small cell lung = test system: DMS 114 small cell lung
DMS 273 small cell lung = test system: DMS 273 small cell lung
M19-MEL melanoma = test system: M19-MEL melanoma
RXF-631 renal = test system: RXF-631 renal
SNB-78 CNS = test system: SNB-78 CNS
BT-549 breast = test system: BT-549 breast
MDA-N = test system: MDA-N
XF 498 CNS = test system: XF 498 CNS

| SMILES | TGI (DLD-1 colon) [µM] | TGI (DMS 114 small cell lung) [µM] | TGI (M19-MEL melanoma) [µM] | TGI (SNB-78 CNS) [µM] | GI50 (BT-549 breast) [µM] | TGI (BT-549 breast) [µM] | also measured |
| --- | --- | --- | --- | --- | --- | --- | --- |
| CN(C)CCC(CCN(C)C)=NO | > 100 | > 100 | > 100 | > 100 | – | – | TGI (DMS 273 small cell lung): > 100 µM; TGI (RXF-631 renal): > 100 µM |
| COC1=C(C)C(=O)c2c(c(CCCl)c3n2CCC3OC(C)=O)C1=O (stereo not drawn) | – | – | – | – | 0.149 | 0.652 | – |
| COc1ccc(CCN(CC(=O)N(CC(N)=O)C2CCC[C@@H]2OCc2ccccc2)C(=O)CN(C(=O)CN(CCc2ccc(Cl)cc2)C(=O)CN(C(=O)CN(C)Cc2ccccc2F)[C@H](C)C2CCCCC2)[C@H](C)C2CCCCC2)cc1OC (stereo partly drawn) | – | – | – | – | 1.61 | 15.6 | – |
| CCCCCCn1c(SC)nc(COC(=O)NC)c1COC(=O)NC | – | – | – | – | – | 34 | TGI (MDA-N): 36.1 µM |
| CN(C)CC(=O)Nc1ccc2ncnc(Nc3ccc(Oc4cccc(C(F)(F)F)c4)c(Cl)c3)c2c1 | – | – | – | – | 3.91 | 17.3 | – |
| CCOC(=O)C1=C(C)NC(=O)NC1CN1C(=O)c2ccccc2C1=O (stereo not drawn) | – | – | – | – | > 100 | > 100 | – |
| O=C(OCCCl)C1OC(n2cc(F)c(=O)[nH]c2=O)CC1O (stereo not drawn) | > 100 | > 100 | > 100 | > 100 | – | – | TGI (XF 498 CNS): > 100 µM |
| CCn1c2ccccc2c(=O)c2c(OC)ccc(OC)c21 | – | – | > 100 | – | – | – | TGI (DMS 273 small cell lung): > 100 µM; TGI (RXF-631 renal): > 100 µM; TGI (XF 498 CNS): > 100 µM |
| CC(=O)CC/C=C(\C)[C@H](O)[C@H](C)C(=O)O[C@H]1C[C@H](C)C=C2C=C[C@@]3(C)O[C@@H](O)CC(=O)[C@]3(C)[C@H]21 | – | – | – | – | 0.781 | 3.76 | – |
| O=C(N/C(=C\c1cccc([N+](=O)[O-])c1)c1nc2ccccc2[nH]1)c1ccccc1 | > 100 | > 100 | > 100 | > 100 | – | – | TGI (DMS 273 small cell lung): > 100 µM; TGI (XF 498 CNS): 87.5 µM |
| N#CC1=C(N)NC(=S)NC12Nc1ccccc1S2 (stereo not drawn) | – | – | – | – | 18.6 | 53 | – |
| C=C1C(=O)O[C@H]2[C@H](OC(C)=O)[C@@H](C)CCCC3(C)OC3CCC3(CO3)[C@H](O)C[C@@H]12 (stereo partly drawn) | – | – | – | – | 11.4 | 32 | – |
| COC(=O)c1ncc2c(=O)[nH]c3ccccc3c2c1C(=O)OC | > 100 | > 100 | > 100 | > 100 | – | – | TGI (DMS 273 small cell lung): > 100 µM; TGI (RXF-631 renal): > 100 µM; TGI (XF 498 CNS): > 100 µM |
| Oc1ccc2ccccc2c1N=Nc1cc(Cl)ccc1Cl | – | – | – | – | – | > 50 | TGI (MDA-N): > 50 µM |
| CN(C)CCCSc1ccccc1NC1=C(Cl)C(=O)C(Nc2ccccc2SCCCN(C)C)=C(Cl)C1=O | – | – | – | – | 1.46 | 2.87 | – |
| COc1ccc(/C=C2\COc3ccc(O)c(O)c3C2=O)c(OC)c1OC | – | – | – | – | 4.03 | 12 | – |
| Cc1cc(N2CCCCC2)nc(NC2CCCC(Nc3ccnc4cc(Cl)ccc34)C2)n1 (stereo not drawn) | – | – | – | – | 1.58 | 3.07 | – |
| OCC[N+]12CCCN1CCC2 | > 100 | > 100 | > 100 | > 100 | – | – | TGI (DMS 273 small cell lung): > 100 µM |
| COc1ccc(C(=O)c2c3cc(OC)c(OC)c(OC)c3cc[n+]2C)cc1 | > 100 | 75.7 | > 100 | > 100 | – | – | TGI (RXF-631 renal): > 100 µM; TGI (XF 498 CNS): 33.3 µM |

Source: PubChem BioAssay (NCI)
